From paper PMC10054226, “Rapid and Efficient Access to Novel Bio-Inspired 3-Dimensional Tricyclic SpiroLactams as Privileged Structures via Meyers’ Lactamization” (Pharmaceuticals, 2023)

Legend:
[1] = tested on: metastatic breast cancer cell lines (MDA-MB-231); design: method as in PMID 21158420; conditions: cited from earlier work
[2] = Aqueous solubility in PBS at pH 7.4 (LC-MS/MS, AUC PBS/AUC MeOH x 200); assay type: physicochemical; conditions: aqueous buffer, kinetic from dmso stock; PBS at pH 7.4, 24 h shaking at room temperature, triplicate
Procedure: To determine compound solubility, 10 mM of the compound 44 in DMSO was diluted 50-fold either in PBS at pH 7.4 or in organic MeOH solvent in PP tubes (n = 3 for PBS and […]). The tubes were gently shaken for 24 h at room temperature. Then, the three PBS tubes and three of the six methanol tubes were centrifuged for 5 min at 4000 rpm and filtered over 0.45 μm filters (Millex-LH Millipore). The sample was diluted 50-fold in MeOH before LC-MS/MS analysis. The test was performed in triplicate. The solubility was determined by the following ratio: (AUCPBS/AUCMeOH) × 200.

[3] = LogD, octanol:PBS 1:1 at pH 7.4 (LC-MS/MS); assay type: physicochemical; conditions: octanol:PBS 1:1 at pH 7.4, 2 h at room temperature, triplicate
Procedure: To determine compound LogD, 10 mM of the compound 44 in DMSO was diluted 50-fold in a mixture of 1:1 octanol:PBS at pH 7.4. The mixture was gently shaken for 2 h at room temperature. Each sample was then diluted 50-fold in MeOH before LC-MS/MS analysis. For each compound, the test was performed in triplicate. LogD was determined as the logarithm of the ratio of product concentrations in octanol and PBS, respectively, determined by mass signals.

For `C=C1CCC2C(C)(C)CCCC23C(=O)OCC13` (stereo not drawn) [Antrocin], the “activity against the proliferation of metastatic breast cancer cell lines” value [1] is listed as “significant activity”.

For `CC(C)[C@H]1CO[C@]23CCNC[C@H]2CCC(=O)N13` [Compound 44, (3S,7aR,11aR)-3-isopropyl-3,6,7,7a,8,9,10,11-octahydro-2H-oxazolo[2,3-j][1,6]naphthyridin-5-one;formic acid], the solubility at 24 h [2] was > 200 µM and the logD at 2 h [3] was -1.72.
